Several values for one entry are separate records, joined by “and”; a condition that tells them apart may be missing. Equal entries are not always repeated. Marks after values point to notes of the source that are not given here.
How the values were obtained:
[1] = system: acidic vesicular organelles (AVO) in MCF-7 cells; assay: Mean red/green fluorescence ratio in acridine orange stained cells by flow cytometry; type: cell-based, human
Experimental: bFGF was added to cultures of MCF-7 cells at 10 ng/ml for 48 hours. TNF was added at 2.3 nM for 48 hours. PMA was added for 1 hour at a concentration of 30 nM, followed by rinsing of the cells and incubation for an additional 48 hours.
Cell staining was performed according to standard techniques (Arvan et al., 1984, J. Bio. Chem. 259:13567-13572; Mains and May, 1988, J. Biol. Chem. 263:7887-7894; Traganos and Darzynkiewicz, Methods in Cell Biology 41:185-194, Academic Press). Acridine orange (Polysciences, Warrington, Pa.) was added to a final concentration of 1 μg/ml for 15 minutes. Bafilomycin A1 (Sigma Chemical Co., St. Louis, Mo.) was dissolved in DMSO and added to the cells 30 minutes prior to the addition of acridine orange. LysoSensor Blue DND-167 (Molecular Probes, Eugene, Oreg.) at a final concentration of 10 μM was added for 8 minutes. Pictures were obtained with a fluorescence microscope (Olympus BH-2 RFCA), equipped with a mercury-100 W lamp, 490 nm band pass blue excitation filters, 500 nm dichroic mirror and a 515 nm long pass barrier filter. Images of control and irradiated cells were recorded on Kodak Elite II 100 ASA film for color slides by 4 seconds exposure.
In acridine orange stained cells the cytoplasm and nucleolus fluoresce bright green and dim red, while acidic compartments fluoresce bright red (Mains and May, 1988, J. Biol. Chem. 263:7887-7894; Traganos and Darzynkiewicz, Methods in Cell Biology Vol. 41, pp. 185-194, Academic Press). The intensity of the red fluorescence is proportional to the degree of acidity and/or the volume of the cellular acidic compartment. Therefore, by comparing the mean red/green fluorescence ratio within different cell populations, a change in the degree of acidity and/or the fractional volume of the cellular acidic compartment could be measured. Cells were stained with acridine orange for […], removed from the plate with trypsin-EDTA and collected in phenol red-free growth medium. Green (510-530 nm) and red (>650 nm) Fluoresence emission from 10,000 cells illuminated with blue (488 nm) excitation light was measured with a FACSCalibur from Becton Dickinson (San Jose, Calif.) using CellQuest software. The red to green fluorescence ratio for individual cells was calculated using FlowJo software (TREE STAR, Inc., San Carlos, Calif.). To control for possible effect of trypsinization on the measured red to green fluorescence ratio, the ratios were compared by flow cytometry with those obtained with a Laser Scanning Microscope (LSM510 from Zeiss). Stained cells, grown on cover glass, were illuminated with a 488 nm argon laser beam. The red (>650 nm) to green (505-545 nm) fluorescence ratio of an entire image was obtained using software LSM 510 version 2.01 SP2. These measurements yielded similar results to those obtained with flow cytometry. All determinations of red to green fluorescence ratio reported in this section were obtained via flow cytometry.

[2] = system: AVO-EM in irradiated MCF-7 cells; assay: Electron microscopy of AVO-EM; type: cell-based, human; settings: 3-methyladenine 5 mM; 10 Gy; without it 94%
Experimental: Cell processing for electron microscopy and staining with N-(3-(2,4-dinitrophenyl)-N-(3-aminopropyl))methylamine dihydrochloride (DAMP; Molecular Probes, Eugene, Oreg.) was performed as set forth in Anderson et al., 1984, Proc. Natl. Acad. Sci. U.S.A. 81:4838-4842 and Dunn et al., 1990, J. Cell Biol. 110:1935-1945. The fraction of the cytoplasmic volume occupied by AVO (fractional volume of AVO) was quantified from electron micrographs according to Dunn and Lenk et al., (Dunn et al., 1990, J. Cell Biol. 110:1935-1945; Lenk et al., 1992, J. Cell Biol. 118:301-308). Digital Images of the micrographs were obtained using an Epson ES-1200S flat bed scanner with Adobe Photoshop version 5. The fractional volume was calculated with Image Pro Plus Version 3 and expressed as a percentage of the total cytoplasmic volume.

[3] = system: MCF-7 (human breast adenocarcinoma); assay: Clonogenic survival (surviving fraction) of MCF-7 cells after radiation or chemotherapeutic agent; type: cell-based
[4] = system: MCF-7 (human breast adenocarcinoma); assay: as above; type: cell-based; settings: for Surviving Fraction 100 nM Adriamycin / Surviving Fraction: Table 16
Experimental: (§1) MCF-7 (human breast adenocarcinoma), LoVo (human colon adenocarcinoma) and LNCaP (human prostate carcinoma) were obtained from the American Type Culture Collection. Cells were maintained as described in Paglin et al., 1997, Biochem. Biophs. Res. Comm. 237:678-684). Irradiation was carried out 48 hours post-plating (T0) at room temperature using a Cs-137 irradiator (Sheperd Mark-I, model 68, SN643) at a dose rate of 2.43-2.32 Gy/min. Bovine aortic endothelial cells were grown and treated with H2O2 as described in Haimovitz-Friedman et al., 1994, J. Exp. Med. 180:525-535 and Verhij et al., 1996, Nature 380:75-79. Phorbol 12-myristate 13-acetate (PMA; Alexis Biochemicals Corp., San Diego, Calif.) was dissolved in dimethyl sulfoxide (DMSO) and added to cells for the duration of one hour. The final DMSO concentration was 0.03%. The cells were then rinsed with warm growth medium before being returned to the incubator for an additional 48 hours.
(§2) Cells were plated in growth medium at a density of 30-90 cells per square centimeter and irradiated 22 hours later. Each experimental condition was done in quintet or triplicate. Cells were irradiated at room temperature in Cs-137 Irradiator (Sheperd Mark-I, Model 68, SN 643) at a rate of 2.43-2.32 Gy/min. […] For determination of their red to green ratio, colonies were processed as described above. For determination of surviving fractions cells were stained with crystal violet and colonies containing 50 cells or more were counted with a dissecting microscope. The surviving fraction was defined as the ratio between the plating efficiencies of irradiated and non-irradiated cells and was calculated at each dose level according to Hall and Phill (1994, […] for the Radiologist, 4th Edition, J. Lippincott Co., Philadelphia).

[5] = system: LoVo (human colon adenocarcinoma); assay: Clonogenic survival (surviving fraction) of LoVo cells after radiation or chemotherapeutic agent; type: cell-based
Experimental: as §1, §2

AVO in MCF-7 cells = assay: Vital staining with acridine orange, fluorescence microscopy; type: cell-based, human; settings: pre-incubation with 300 μM chloroquine
Experimental: Acridine orange (Polysciences, Warrington, Pa.) was added to a final concentration of 1 μg/ml for 15 minutes. […] Pictures were obtained with a fluorescence microscope (Olympus BH-2 RFCA), equipped with a mercury-100 W lamp, 490 nm band pass blue excitation filters, 500 nm dichroic mirror and a 515 nm long pass barrier filter. Images of control and irradiated cells were recorded on Kodak Elite II 100 ASA film for color slides by 4 seconds exposure.

For `CO[C@H]1C[C@@H]2CC[C@@H](C)[C@@](O)(O2)C(=O)C(=O)N2CCCC[C@H]2C(=O)O[C@H]([C@H](C)C[C@@H]2CC[C@@H](O)[C@H](OC)C2)CC(=O)[C@H](C)/C=C(\C)[C@@H](O)[C@@H](OC)C(=O)[C@H](C)C[C@H](C)/C=C/C=C/C=C/1C` [Rapamycin, rapamycin], the “Fold Increase in Red:Green 48 hrs” value ([1]; Table 21, MCF-7, 20 nM rapamycin) was 1.96 fold, the “Fold Increase in Red:Green 48 hrs” value ([1]; Table 21, MCF-7, 50 nM rapamycin) was 2.31 fold and the “Fold Increase in Red:Green 24 hrs” value ([1]; Table 22, Rapamycin 10 nM) was 1.7 fold. The “Fold Increase in Red:Green 48 hrs” value ([1]; Table 22, Rapamycin 10 nM) was 1.6 fold, the “Fold Increase in Red:Green 24 hrs” value ([1]; Table 22, Rapamycin 20 nM) was 1.7 fold and the “Fold Increase in Red:Green 48 hrs” value ([1]; Table 22, Rapamycin 20 nM) was 1.4 fold.

In the case of `C[C@]12CC[C@@H]3c4ccc(O)cc4CC[C@H]3[C@@H]1CC[C@@H]2O` [Estradiol], the “Fold increase of Red:Green” value ([1]; Estradiol 10^−9 M alone) is reported as 1 fold and the “inhibition of the effect of tamoxifen on appearance of acidic vesicular organelles” value ([1]; estradiol 10^−9 M with tamoxifen, Table 23) is reported as 50%.

For `CC/C(=C(\c1ccccc1)c1ccc(OCCN(C)C)cc1)c1ccccc1` [Tamoxifen], the “Fold increase of Red:Green” value ([1]; Tamoxifen 2 × 10^−6 M) was 1.6 fold, the “Fold increase of Red:Green” value ([1]; Tamoxifen 2 × 10^−6 M + Estradiol 10^−9 M) was 1.33 fold and the “Fold increase of Red:Green” value ([1]; Tamoxifen 10^−6 M) was 1.5 fold. For the same compound, the “Fold increase of Red:Green” value ([1]; Tamoxifen 10^−6 M + Estradiol 10^−9 M) was 1.25 fold.

In the case of `Cn1cnc(N)c2ncnc1-2` [3-methyladenine], the “red to green ratio” value ([1]; 3-methyladenine 5 mM, 48 hours following radiation with 10 Gy, without it 1.77±0.01, n=3) is reported as 1.15±0.01 and the “fraction of cells containing AVO-EM” value [2] is reported as 22%.

With z-VAD-fmk the “mean red to green fluorescence ratio” value ([1]; z-VAD-fmk 50 μM added 1 hour before irradiation, 10 Gy, 24 hours following irradiation) was 2.5 ± 0.04 and the “mean red to green fluorescence ratio” value ([1]; z-VAD-fmk 50 μM added 1 hour before, unirradiated, 24 hours) was 1.4 ± 0.07.

With `CC/C=C\C=C/C(=O)N/C=C/C[C@H]1C[C@@H](O)[C@@H](C)C/C=C/Cc2cccc(O)c2C(=O)O1` [Salicylihalamide A] the decrease of survival ([3]; 50 nM salicylihalamide A in combination with 100 nM Adriamycin) was 25%, the “decrease of survival of irradiated cells” value ([4]; 25 nM salicylihalamide A, 3 Gy) was 30% and the “Surviving Fraction 0 Gy” value ([4]; Salicylihalamide A 12.5 nM) was 1.14 ± 0.07. The “Surviving Fraction 3 Gy” value ([4]; Salicylihalamide A 12.5 nM, 3 Gy) was 0.38 ± 0.03, the “Surviving Fraction 0 Gy” value ([4]; Salicylihalamide A 25 nM) was 0.92 ± 0.08 and the “Surviving Fraction 0 Gy” value ([4]; Salicylihalamide A 25 nM, listed as salicylihalamide A) was “did not significantly affect”. For the same compound, the “Surviving Fraction 3 Gy” value ([4]; Salicylihalamide A 25 nM, 3 Gy) was 0.32 ± 0.03, the “Surviving Fraction 0 Gy” value ([4]; Salicylihalamide A 50 nM) was 0.72 ± 0.09 and the “Surviving Fraction 3 Gy” value ([4]; Salicylihalamide A 50 nM, 3 Gy) was 0.22 ± 0.04. The “Surviving Fraction 0 Gy” value ([4]; Salicylihalamide A 100 nM) was 0.53 ± 0.03, the “Surviving Fraction 3 Gy” value ([4]; Salicylihalamide A 100 nM, 3 Gy) was 0.11 ± 0.02 and the “Surviving Fraction 100 nM Adriamycin” value ([4]; MCF-7, Salicilyhalamide 25 nM + 100 nM Adriamycin) was 0.79 ± 0.05. The “Surviving Fraction” value ([4]; MCF-7, Salicilyhalamide 25 nM alone) was 1.03 ± 0.03, the “Surviving Fraction 100 nM Adriamycin” value ([4]; MCF-7, Salicilyhalamide 50 nM + 100 nM Adriamycin) was 0.66 ± 0.04 and the “Surviving Fraction” value ([4]; MCF-7, Salicilyhalamide 50 nM alone, listed as Salicilyhalamide) was 0.95 ± 0.01. The “Surviving Fraction” value ([4]; MCF-7, Salicilyhalamide 50 nM alone, listed as salicylihalamide A) was “minimal effect”, the “Surviving Fraction 100 nM Adriamycin” value ([4]; MCF-7, Salicilyhalamide 100 nM + 100 nM Adriamycin) was 0.57 ± 0.01 and the “Surviving Fraction” value ([4]; MCF-7, Salicilyhalamide 100 nM alone) was 0.78 ± 0.04.

“bFGF: cytokine tested as inducer of acidic organelle formation” was tested, and the “Fold Increase in Red: Green” value ([1]; MCF-7, bFGF 10 ng/ml for 48 hours) was 2.23 ± 0.18 (n = 3) fold.

`COc1cc([C@@H]2c3cc4c(cc3[C@@H](O[C@@H]3O[C@@H]5CO[C@@H](C)O[C@H]5[C@H](O)[C@H]3O)[C@H]3COC(=O)[C@H]23)OCO4)cc(OC)c1O` [Etoposide] was tested, and the “cell survival (head of column empty)” value ([5]; Table 19, Etoposide 0.05 μg/ml alone) was 0.78 ± 0.05 and the “cell survival (head of column empty)” value ([4]; Table 18, MCF-7, Etoposide 0.05 μg/ml alone) was “(0.79; 0.77) 0.78*”.

In the case of `COc1cccc2c1C(=O)c1c(O)c3c(c(O)c1C2=O)C[C@@](O)(C(=O)CO)C[C@@H]3O[C@H]1C[C@H](N)[C@H](O)[C@H](C)O1` [Adriamycin], the “Surviving Fraction Without Bafilomycin” value ([5]; Adriamycin 50 nM alone) is reported as 0.84 ± 0.01, the “Surviving Fraction Without Bafilomycin” value ([5]; Adriamycin 100 nM alone) is reported as 0.77 ± 0.01 and the “Surviving Fraction Without Bafilomycin” value ([5]; Adriamycin 150 nM alone) is reported as 0.47 ± 0.02. For the same compound, the “survival, Adriamycin 100 nM” value ([5]; Table 17, Adriamycin 100 nM alone, 48 hours) was 0.94 ± 0.1, the “survival, column Adriamycin” value ([3]; Table 15, 100 nM adriamycin alone (Bafilomycin 0 nM)) was 0.88 ± 0.08 and the “Surviving Fraction 100 nM Adriamycin” value ([4]; MCF-7, 100 nM Adriamycin alone (Salicilyhalamide 0 nM)) was 0.88 ± 0.08.

`CCCCCCCCCCCCCC(=O)O[C@@H]1[C@@H](C)[C@@]2(O)[C@@H](C=C(CO)C[C@]3(O)C(=O)C(C)=C[C@@H]23)[C@@H]2C(C)(C)[C@]12OC(C)=O` [PMA, Phorbol 12-myristate 13-acetate] was tested, and the “Fold Increase in Red: Green” value ([1]; MCF-7, PMA 30 nM for 1 hour, rinsed, additional 48 hours) was 1.7±0.3 fold and 1.7 ± 0.3 (n = 3) fold.

In the case of `CCN(CC)CCCC(C)Nc1ccnc2cc(Cl)ccc12` (stereo not drawn) [chloroquine], the “acridine orange accumulation in the AVO” value (AVO in MCF-7 cells) is reported as “inhibited acridine orange accumulation”.

— US6982252B2, “Inhibition of vacuolar proton ATPase activity and/or the modulation of acidic organelle function sensitizes cells to radiation, chemotherapy and biological agents” (Memorial Sloan-Kettering Cancer Center, priority 2000, dated 2006)
